Consider 17 compounds from PubChem BioAssay AID286 (DTP/NCI, 2004).

Structures are written as SMILES. Values joined by “and” are separate entries in the source; they are usually repeats but may differ in a detail not shown here. Equal values may be shown once. Inconclusive results and toxic doses are left out.

The experiment has as its system BDF1 mice, M5076 sarcoma ip, median survival T/C. The experiment is described as follows: NCI In Vivo Anticancer Drug Screen. Data for tumor model Sarcoma M5076 (intraperitoneal) in B6D2F1 (BDF1) mice. To be noted: endpoint: median survival time, higher = longer survival. The protocol: The antitumor activity of compounds was measured in mice bearing transplantable tumors. Survival or tumor size were measured and the results are expressed as the measurement made in the treated group (T) divided by the measurement made in the vehicle treated control group (C). The tumor model used in this assay is Sarcoma M5076 (intraperitoneal) in B6D2F1 (BDF1) mice

[1] abbreviates: dose: 25.0 mg/kg/injection, schedule: Q04DX004 (ip), vehicle: saline with Tween-80.
[2] abbreviates: dose: 50.0 mg/kg/injection, schedule: Q04DX004 (ip), vehicle: saline with Tween-80.
[3] abbreviates: dose: 100.0 mg/kg/injection, schedule: Q04DX004 (ip), vehicle: saline with Tween-80.
Where [4] appears, read: dose: 200.0 mg/kg/injection, schedule: Q04DX004 (ip), vehicle: saline with Tween-80.
The mark [5] stands for this setting: dose: 400.0 mg/kg/injection, schedule: Q04DX004 (ip), vehicle: saline with Tween-80.

Consider `Cc1c(N)nc([C@H](CC(N)=O)NC[C@H](N)C(N)=O)nc1C(=O)N[C@H](C(=O)N[C@H](C)[C@@H](O)[C@H](C)C(=O)N[C@H](C(=O)NCCc1nc(-c2nc(C(=O)NCCC[S+](C)C)cs2)cs1)[C@@H](C)O)C(OC1OC(CO)C(O)C(O)C1OC1OC(CO)C(O)C(OC(N)=O)C1O)c1cnc[nH]1` (some centres undefined), for which the T/C is 113 % of control (dose: 4.0 mg/kg/injection, schedule: Q04DX004 (ip), vehicle: saline); 101 % of control (dose: 8.0 mg/kg/injection, schedule: Q04DX004 (ip), vehicle: saline); 117 % of control (dose: 16.0 mg/kg/injection, schedule: Q04DX004 (ip), vehicle: saline); 116 % of control (dose: 32.0 mg/kg/injection, schedule: Q04DX004 (ip), vehicle: saline).

Turning to `COc1cc2cc3c(c(O)c2c(O)c1/C=C/C(C)C)C(=O)CC(C)(OC(C)=O)C3` (centres undefined), the T/C by setting is: (dose: 0.31 mg/kg/injection, schedule: Q01DX009 (ip), vehicle: Klucel (hydroxypropylcellulose) (HPC)) 111 % of control; (dose: 0.63 mg/kg/injection, schedule: Q01DX009 (ip), vehicle: Klucel (hydroxypropylcellulose) (HPC)) 108 % of control and 115 % of control; (dose: 1.25 mg/kg/injection, schedule: Q01DX009 (ip), vehicle: Klucel (hydroxypropylcellulose) (HPC)) 111 % of control and 119 % of control.

For `N[C@H](C(=O)O)[C@@H]1CC(Cl)=NO1`, the T/C runs as follows: (dose: 15.0 mg/kg/injection, schedule: Q04DX005 (ip), vehicle: saline) 113 % of control; (dose: 60.0 mg/kg/injection, schedule: Q04DX005 (ip), vehicle: saline) 160 % of control; (dose: 120.0 mg/kg/injection, schedule: Q04DX005 (ip), vehicle: saline) 195 % of control and 160 % of control.

Consider `CCN(CC)CCCNc1nccc2c(C)c3[nH]c4ccncc4c3cc12`, for which the T/C is 152 % of control (dose: 0.63 mg/kg/injection, schedule: Q04DX004 (ip), vehicle: other); 191 % of control (dose: 1.25 mg/kg/injection, schedule: Q04DX004 (ip), vehicle: other); 179 % of control (dose: 2.5 mg/kg/injection, schedule: Q04DX004 (ip), vehicle: other); 260 % of control (dose: 5.0 mg/kg/injection, schedule: Q04DX004 (ip), vehicle: other); 208 % of control (dose: 10.0 mg/kg/injection, schedule: Q04DX004 (ip), vehicle: other).

Take `COc1cc(C)c(C2NC(=O)c3ccccc3N2)cc1C` (centres undefined): the T/C (dose: 12.5 mg/kg/injection, schedule: Q04DX004 (ip), vehicle: saline with Tween-80) is 102 % of control; the T/C under setting [1] was 102 % of control; the T/C under setting [2] is 90 % of control; the T/C under setting [3] is 105 % of control; the T/C under setting [4] is 124 % of control.

Take `OC(CBr)C(O)C(O)C(O)CBr` (centres undefined): the T/C is 111 % of control under setting [2]; 114 % of control under setting [3]; 122 % of control (dose: 108.0 mg/kg/injection, schedule: Q04DX005 (ip), vehicle: saline with Tween-80); 114 % of control under setting [4]; 114 % of control under setting [5]; 176 % of control (dose: 500.0 mg/kg/injection, schedule: Q04DX005 (ip), vehicle: saline with Tween-80). The T/C runs as follows: (dose: 800.0 mg/kg/injection, schedule: Q04DX004 (ip), vehicle: saline with Tween-80) 108 % of control; (dose: 833.0 mg/kg/injection, schedule: Q04DX005 (ip), vehicle: saline with Tween-80) 176 % of control.

Take `CC[N+](CC)(CC)CC`: the T/C (dose: 10.8 mg/kg/injection, schedule: Q04DX005 (ip), vehicle: saline with Tween-80) was 172 % of control.

`CN(C)CCN1C(=O)c2cccc3cc(N)cc(c23)C1=O`: the T/C is 109 % of control (dose: 4.5 mg/kg/injection, schedule: Q04DX004 (ip), vehicle: acid diluted with saline); 107 % of control (dose: 9.0 mg/kg/injection, schedule: Q04DX004 (ip), vehicle: acid diluted with saline); 115 % of control (dose: 18.0 mg/kg/injection, schedule: Q04DX004 (ip), vehicle: acid diluted with saline).

Regarding `CC[C@](O)(C(=O)O)c1cc2n(c(=O)c1CO)Cc1cc3ccccc3nc1-2`, the T/C (dose: 12.5 mg/kg/injection, schedule: Q04DX004 (ip), vehicle: saline) is 124 % of control.

As to `O=C1c2ccccc2C(Cl)(c2ccc(Cl)cc2)c2ccc(Cl)cc21` (centres undefined), the T/C is 116 % of control under setting [2], 107 % of control under setting [3], 108 % of control under setting [4] and 100 % of control under setting [5].

As to `O=C1c2c(O)ccc(O)c2C(=O)c2c(NCCNCCO)ccc(NCCNCCO)c21`, the T/C is 236 % of control (dose: 0.25 mg/kg/injection, schedule: Q04DX004 (ip), vehicle: water); 260 % of control (dose: 0.5 mg/kg/injection, schedule: Q04DX004 (ip), vehicle: water); 401 % of control (dose: 0.5 mg/kg/injection, schedule: Q04DX005 (ip), vehicle: saline); 260 % of control (dose: 1.0 mg/kg/injection, schedule: Q04DX004 (ip), vehicle: water); 321 % of control (dose: 1.0 mg/kg/injection, schedule: Q04DX005 (ip), vehicle: saline); 260 % of control (dose: 2.0 mg/kg/injection, schedule: Q04DX004 (ip), vehicle: water). For the same compound, the T/C (dose: 2.0 mg/kg/injection, schedule: Q04DX005 (ip), vehicle: saline) was 99 % of control and the T/C (dose: 4.0 mg/kg/injection, schedule: Q04DX004 (ip), vehicle: water) is 100 % of control.

Regarding `CC1CCC(NC(=O)N(CCCl)N=O)CC1` (centres undefined), the T/C was 216 % of control and 163 % of control (dose: 3.0 mg/kg/injection, schedule: Q04DX004 (ip), vehicle: Klucel (hydroxypropylcellulose) (HPC)); 189 % of control and 193 % of control and 216 % of control (dose: 6.0 mg/kg/injection, schedule: Q04DX004 (ip), vehicle: Klucel (hydroxypropylcellulose) (HPC)); 216 % of control and 233 % of control and 320 % of control (dose: 12.0 mg/kg/injection, schedule: Q04DX004 (ip), vehicle: Klucel (hydroxypropylcellulose) (HPC)).

In the case of `COC(=O)C1=C2Nc3ccccc3C23CCN2C(O)C4(CC5CC67CCOC6CCN6CCC8(c9cccc(OC)c9N(C4)C58O)C67)C4OCCC4(C1)C23` (centres undefined), the T/C reads like this: (dose: 3.12 mg/kg/injection, schedule: Q01DX009 (ip), vehicle: Klucel (hydroxypropylcellulose) (HPC)) 102 % of control; (dose: 6.25 mg/kg/injection, schedule: Q01DX009 (ip), vehicle: Klucel (hydroxypropylcellulose) (HPC)) 100 % of control; (dose: 12.5 mg/kg/injection, schedule: Q01DX009 (ip), vehicle: Klucel (hydroxypropylcellulose) (HPC)) 106 % of control; (dose: 25.0 mg/kg/injection, schedule: Q01DX009 (ip), vehicle: Klucel (hydroxypropylcellulose) (HPC)) 99 % of control; (dose: 50.0 mg/kg/injection, schedule: Q01DX009 (ip), vehicle: Klucel (hydroxypropylcellulose) (HPC)) 104 % of control.

For `O=Cc1c(O)c2ccccc2[nH]c1=O`, the T/C is 98 % of control under setting [1], 124 % of control under setting [2] and 101 % of control under setting [3].

For the compound `Nc1ccn(C2OC(CO)C(O)C2O)c(=O)n1` (centres undefined), the T/C runs as follows: (dose: 125.0 mg/kg/injection, schedule: Q04DX005 (ip), vehicle: saline) 164 % of control; (dose: 250.0 mg/kg/injection, schedule: Q04DX005 (ip), vehicle: saline) 184 % of control; (dose: 500.0 mg/kg/injection, schedule: Q04DX005 (ip), vehicle: saline) 185 % of control; (dose: 1000.0 mg/kg/injection, schedule: Q04DX005 (ip), vehicle: saline) 199 % of control.

For the compound `CN(Cc1cnc2nc(N)nc(N)c2n1)c1ccc(C(=O)N[C@@H](CCC(=O)O)C(=O)O)cc1`, the T/C is, setting by setting: (dose: 1.7 mg/kg/injection, schedule: Q01DX009 (ip), vehicle: sodium bicarbonate) 93 % of control; (dose: 2.0 mg/kg/injection, schedule: Q04DX005 (ip), vehicle: sodium bicarbonate) 108 % of control; (dose: 2.6 mg/kg/injection, schedule: Q01DX009 (ip), vehicle: sodium bicarbonate) 101 % of control; (dose: 4.0 mg/kg/injection, schedule: Q04DX005 (ip), vehicle: sodium bicarbonate) 101 % of control; (dose: 8.0 mg/kg/injection, schedule: Q04DX005 (ip), vehicle: sodium bicarbonate) 112 % of control.

For the compound `Cc1c2ccccc2c(C)c2c1cc(C(=O)O)c1ccccc12`, the T/C is 109 % of control (dose: 25.0 mg/kg/injection, schedule: Q04DX004 (ip), vehicle: sodium bicarbonate); 110 % of control (dose: 100.0 mg/kg/injection, schedule: Q04DX004 (ip), vehicle: sodium bicarbonate); 116 % of control (dose: 200.0 mg/kg/injection, schedule: Q04DX004 (ip), vehicle: sodium bicarbonate); 110 % of control (dose: 400.0 mg/kg/injection, schedule: Q04DX004 (ip), vehicle: sodium bicarbonate).
